Experiments:
Test in all cases: biochemical
Design in all cases: KINOMEscan competition binding panel (Eurofins DiscoverX), single concentration, percent inhibition
Conditions in all cases: read-out: 15 at 1 µM % inhibition
[1] = target: ABL2 (Homo sapiens, UniProt P42684)
Procedure, shortened: (§1)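 KINOMEscan selectivity screen; >400 human kinases; compound at 1 µM, single concentration.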

[2] = target: ACVR1 (Homo sapiens, UniProt Q04771)
Procedure, shortened: as §1

[3] = target: AURKA (Homo sapiens, UniProt O14965)
Procedure, shortened: as §1

[4] = target: CAMKK2 (Homo sapiens, UniProt Q96RR4)
CAMKK2, sequence (Q96RR4 whole entry): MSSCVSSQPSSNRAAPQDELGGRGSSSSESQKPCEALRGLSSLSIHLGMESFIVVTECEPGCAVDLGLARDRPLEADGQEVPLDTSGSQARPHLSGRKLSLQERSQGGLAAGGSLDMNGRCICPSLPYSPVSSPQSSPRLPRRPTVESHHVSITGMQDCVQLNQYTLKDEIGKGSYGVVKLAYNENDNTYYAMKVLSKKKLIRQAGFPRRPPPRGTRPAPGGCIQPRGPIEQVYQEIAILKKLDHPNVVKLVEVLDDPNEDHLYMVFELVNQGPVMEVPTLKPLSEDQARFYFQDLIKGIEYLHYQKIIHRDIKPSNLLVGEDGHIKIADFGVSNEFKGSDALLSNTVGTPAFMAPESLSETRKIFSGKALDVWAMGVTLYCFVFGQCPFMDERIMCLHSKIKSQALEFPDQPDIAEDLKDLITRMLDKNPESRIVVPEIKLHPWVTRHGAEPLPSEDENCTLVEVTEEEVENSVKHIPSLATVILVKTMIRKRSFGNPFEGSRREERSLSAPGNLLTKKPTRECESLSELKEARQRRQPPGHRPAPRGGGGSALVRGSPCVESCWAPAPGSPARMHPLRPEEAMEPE
Procedure, shortened: as §1

[5] = target: T1, CDC2L2 (Homo sapiens, UniProt Q9UQ88)
T1 construct: gene CDK11A
Procedure, shortened: as §1

[6] = target: CDKL2 (Homo sapiens, UniProt Q92772)
CDKL2, sequence (Q92772 whole entry): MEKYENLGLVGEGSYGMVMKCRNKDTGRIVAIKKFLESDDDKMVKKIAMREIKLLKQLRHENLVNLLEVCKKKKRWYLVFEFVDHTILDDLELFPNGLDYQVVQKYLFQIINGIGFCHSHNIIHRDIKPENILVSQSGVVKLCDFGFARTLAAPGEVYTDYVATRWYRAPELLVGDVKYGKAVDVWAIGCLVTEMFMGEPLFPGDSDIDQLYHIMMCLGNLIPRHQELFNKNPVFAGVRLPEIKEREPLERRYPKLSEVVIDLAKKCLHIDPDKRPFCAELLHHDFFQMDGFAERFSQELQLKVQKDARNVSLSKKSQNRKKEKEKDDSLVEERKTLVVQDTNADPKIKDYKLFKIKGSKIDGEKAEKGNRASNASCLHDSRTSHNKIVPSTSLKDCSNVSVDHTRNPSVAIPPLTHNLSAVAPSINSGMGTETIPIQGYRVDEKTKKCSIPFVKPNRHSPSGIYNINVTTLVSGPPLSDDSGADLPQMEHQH
Procedure, shortened: as §1

[7] = target: CLK2 (Homo sapiens, UniProt P49760)
Procedure, shortened: as §1

[8] = target: CLK3 (Homo sapiens, UniProt P49761)
CLK3, sequence (P49761 whole entry): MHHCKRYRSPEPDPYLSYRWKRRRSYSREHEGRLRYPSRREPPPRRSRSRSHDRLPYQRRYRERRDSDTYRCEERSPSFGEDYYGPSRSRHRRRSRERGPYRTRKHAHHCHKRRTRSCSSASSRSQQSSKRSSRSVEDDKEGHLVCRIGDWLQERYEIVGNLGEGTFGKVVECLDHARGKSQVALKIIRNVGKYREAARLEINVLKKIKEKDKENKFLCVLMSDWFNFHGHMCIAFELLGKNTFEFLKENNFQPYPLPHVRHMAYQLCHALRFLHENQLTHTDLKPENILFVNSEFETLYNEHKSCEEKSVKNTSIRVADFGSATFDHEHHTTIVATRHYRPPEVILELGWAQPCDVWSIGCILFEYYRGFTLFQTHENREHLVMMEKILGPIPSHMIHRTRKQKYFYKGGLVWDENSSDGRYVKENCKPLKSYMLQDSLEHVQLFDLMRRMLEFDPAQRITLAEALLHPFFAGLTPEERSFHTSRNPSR
Procedure, shortened: as §1

[9] = target: T2, DMPK2 (Homo sapiens, UniProt Q6DT37)
T2 construct: gene CDC42BPG
Procedure, shortened: as §1

[10] = target: FLT3(ITD,D835V) (Homo sapiens, UniProt P36888, D835V/ITD)
Procedure, shortened: as §1

[11] = target: FLT3-autoinhibited (Homo sapiens, UniProt P36888)
Procedure, shortened: as §1

[12] = target: GAK (Homo sapiens, UniProt O14976)
Procedure, shortened: as §1

[13] = target: GSK3B (Homo sapiens, UniProt P49841)
GSK3B, sequence (P49841 whole entry): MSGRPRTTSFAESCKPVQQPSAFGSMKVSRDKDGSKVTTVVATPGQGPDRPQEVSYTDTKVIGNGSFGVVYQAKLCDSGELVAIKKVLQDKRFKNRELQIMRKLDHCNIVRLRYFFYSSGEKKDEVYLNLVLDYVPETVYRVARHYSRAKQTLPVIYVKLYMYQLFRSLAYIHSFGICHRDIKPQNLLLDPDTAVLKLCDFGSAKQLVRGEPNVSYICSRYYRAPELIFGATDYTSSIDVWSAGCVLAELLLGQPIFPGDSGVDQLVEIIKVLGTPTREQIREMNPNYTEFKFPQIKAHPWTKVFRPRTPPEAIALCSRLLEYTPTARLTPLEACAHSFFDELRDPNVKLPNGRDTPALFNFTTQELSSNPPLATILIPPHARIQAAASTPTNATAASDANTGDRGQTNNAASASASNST
Procedure, shortened: as §1

[14] = target: MAP4K4 (Homo sapiens, UniProt O95819)
Procedure, shortened: as §1

[15] = target: MYLK2 (Homo sapiens, UniProt Q9H1R3)
Procedure, shortened: as §1

[16] = target: PIM2 (Homo sapiens, UniProt Q9P1W9)
PIM2, sequence (Q9P1W9 whole entry): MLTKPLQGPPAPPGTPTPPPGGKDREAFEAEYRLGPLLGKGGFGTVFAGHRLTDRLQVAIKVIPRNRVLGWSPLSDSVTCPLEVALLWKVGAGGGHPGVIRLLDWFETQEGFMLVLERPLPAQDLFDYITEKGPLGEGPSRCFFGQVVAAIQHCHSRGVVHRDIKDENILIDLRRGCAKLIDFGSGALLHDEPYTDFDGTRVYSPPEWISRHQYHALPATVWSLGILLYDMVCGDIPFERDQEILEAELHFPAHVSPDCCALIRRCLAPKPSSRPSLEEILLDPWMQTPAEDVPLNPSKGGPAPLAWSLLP
Procedure, shortened: as §1

[17] = target: T3, PKAC-beta (Homo sapiens, UniProt P22694)
T3 construct: gene PRKACB
Procedure, shortened: as §1

[18] = target: RET (Homo sapiens, UniProt P07949)
RET, sequence (P07949 whole entry): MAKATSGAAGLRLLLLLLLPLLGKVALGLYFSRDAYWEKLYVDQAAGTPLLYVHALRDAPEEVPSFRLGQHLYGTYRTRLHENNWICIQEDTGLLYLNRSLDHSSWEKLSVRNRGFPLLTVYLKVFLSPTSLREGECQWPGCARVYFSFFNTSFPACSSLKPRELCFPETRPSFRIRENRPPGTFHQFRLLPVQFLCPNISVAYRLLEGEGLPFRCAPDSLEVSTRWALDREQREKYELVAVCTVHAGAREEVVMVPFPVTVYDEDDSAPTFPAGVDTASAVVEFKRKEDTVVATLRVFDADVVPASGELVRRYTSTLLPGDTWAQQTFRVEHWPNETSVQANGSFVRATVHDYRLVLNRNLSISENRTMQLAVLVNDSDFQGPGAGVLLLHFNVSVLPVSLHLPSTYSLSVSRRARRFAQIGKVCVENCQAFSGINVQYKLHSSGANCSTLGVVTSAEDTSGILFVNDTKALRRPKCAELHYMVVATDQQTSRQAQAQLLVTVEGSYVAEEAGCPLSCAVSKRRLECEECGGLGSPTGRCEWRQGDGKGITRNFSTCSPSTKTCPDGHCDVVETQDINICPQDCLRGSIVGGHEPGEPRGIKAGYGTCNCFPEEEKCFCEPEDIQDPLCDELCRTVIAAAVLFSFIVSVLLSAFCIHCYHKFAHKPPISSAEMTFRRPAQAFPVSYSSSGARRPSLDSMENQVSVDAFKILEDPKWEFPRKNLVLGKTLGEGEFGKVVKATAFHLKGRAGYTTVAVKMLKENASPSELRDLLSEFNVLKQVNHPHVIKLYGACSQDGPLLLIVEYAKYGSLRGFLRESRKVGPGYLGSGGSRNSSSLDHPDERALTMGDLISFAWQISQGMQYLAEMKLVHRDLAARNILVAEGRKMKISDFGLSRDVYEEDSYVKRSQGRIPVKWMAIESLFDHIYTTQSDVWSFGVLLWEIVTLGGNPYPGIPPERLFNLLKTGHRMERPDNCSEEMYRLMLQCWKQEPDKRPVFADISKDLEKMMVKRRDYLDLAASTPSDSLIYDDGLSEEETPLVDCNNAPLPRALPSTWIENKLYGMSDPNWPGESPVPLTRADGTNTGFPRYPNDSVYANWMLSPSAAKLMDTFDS
Procedure, shortened: as §1

[19] = target: RIOK1 (Homo sapiens, UniProt Q9BRS2)
Procedure, shortened: as §1

[20] = target: RIPK1 (Homo sapiens, UniProt Q13546)
Procedure, shortened: as §1

[21] = target: T4, S6K1 (Homo sapiens, UniProt P23443)
T4 construct: gene RPS6KB1
T4 sequence (P23443 whole entry): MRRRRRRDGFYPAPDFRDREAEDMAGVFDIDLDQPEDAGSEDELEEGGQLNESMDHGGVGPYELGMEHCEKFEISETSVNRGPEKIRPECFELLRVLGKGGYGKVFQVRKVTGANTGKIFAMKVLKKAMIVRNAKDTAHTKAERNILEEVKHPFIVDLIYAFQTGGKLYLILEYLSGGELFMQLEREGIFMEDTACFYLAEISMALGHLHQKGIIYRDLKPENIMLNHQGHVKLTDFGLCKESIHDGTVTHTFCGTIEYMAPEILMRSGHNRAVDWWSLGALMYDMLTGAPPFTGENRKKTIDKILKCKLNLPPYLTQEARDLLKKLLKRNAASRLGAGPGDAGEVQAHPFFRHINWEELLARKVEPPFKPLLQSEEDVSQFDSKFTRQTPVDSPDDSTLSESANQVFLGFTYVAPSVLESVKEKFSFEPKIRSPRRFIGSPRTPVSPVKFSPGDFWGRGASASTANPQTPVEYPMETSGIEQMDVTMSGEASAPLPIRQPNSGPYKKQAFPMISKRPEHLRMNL
Procedure, shortened: as §1

[22] = target: STK33 (Homo sapiens, UniProt Q9BYT3)
Procedure, shortened: as §1

[23] = target: TGFBR1 (Homo sapiens, UniProt P36897)
Procedure, shortened: as §1

[24] = target: WEE2 (Homo sapiens, UniProt P0C1S8)
WEE2, sequence (P0C1S8 whole entry): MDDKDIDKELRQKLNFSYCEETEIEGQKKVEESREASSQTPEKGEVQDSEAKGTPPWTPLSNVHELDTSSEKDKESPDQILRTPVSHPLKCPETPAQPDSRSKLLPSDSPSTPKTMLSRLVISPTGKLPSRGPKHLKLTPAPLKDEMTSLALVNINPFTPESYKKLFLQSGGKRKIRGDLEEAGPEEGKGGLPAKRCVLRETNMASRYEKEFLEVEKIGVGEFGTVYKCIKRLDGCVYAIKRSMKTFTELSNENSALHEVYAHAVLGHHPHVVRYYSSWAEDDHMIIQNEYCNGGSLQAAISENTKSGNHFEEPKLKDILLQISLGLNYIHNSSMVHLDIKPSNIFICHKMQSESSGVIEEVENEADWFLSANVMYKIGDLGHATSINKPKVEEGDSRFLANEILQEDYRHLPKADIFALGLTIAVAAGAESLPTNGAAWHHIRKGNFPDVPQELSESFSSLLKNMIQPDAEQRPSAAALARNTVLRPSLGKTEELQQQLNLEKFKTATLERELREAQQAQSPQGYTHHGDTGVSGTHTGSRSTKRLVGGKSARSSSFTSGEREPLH
Procedure, shortened: as §1

[25] = target: T5, p38-beta (Homo sapiens, UniProt Q15759)
T5 construct: gene MAPK11
T5 sequence (Q15759 whole entry): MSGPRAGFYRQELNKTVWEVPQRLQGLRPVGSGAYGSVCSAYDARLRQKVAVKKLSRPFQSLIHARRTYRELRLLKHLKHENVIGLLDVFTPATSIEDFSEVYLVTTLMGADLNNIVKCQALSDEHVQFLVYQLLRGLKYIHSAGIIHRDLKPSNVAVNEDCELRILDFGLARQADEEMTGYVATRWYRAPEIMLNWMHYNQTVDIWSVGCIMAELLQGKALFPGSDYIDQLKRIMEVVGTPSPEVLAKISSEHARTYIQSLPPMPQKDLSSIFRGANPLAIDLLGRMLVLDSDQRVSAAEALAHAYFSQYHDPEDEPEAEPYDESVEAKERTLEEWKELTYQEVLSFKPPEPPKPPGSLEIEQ
Procedure, shortened: as §1

CNS(=O)(=O)c1ccc(N(C)C)c(Nc2nc(C)nc3cc(OC)c(OC)cc23)c1 [compound 15, 3-((6,7-dimethoxy-2-methylquinazolin-4-yl)amino)-4-(dimethylamino)-N-methylbenzenesulfonamide]
inhibition at 1 µM [1]: 0% | inhibition at 1 µM [2]: 0% | inhibition at 1 µM [3]: 14% | inhibition at 1 µM [4]: 3% | inhibition at 1 µM [5]: 0% | inhibition at 1 µM [6]: 4% | inhibition at 1 µM [7]: 0% | inhibition at 1 µM [8]: 0% | inhibition at 1 µM [9]: 5% | inhibition at 1 µM [10]: 26% | inhibition at 1 µM [11]: 0% | inhibition at 1 µM [12]: 78% | inhibition at 1 µM [13]: 17% | inhibition at 1 µM [14]: 9% | inhibition at 1 µM [15]: 3% | inhibition at 1 µM [16]: 0% | inhibition at 1 µM [17]: 0% | inhibition at 1 µM [18]: 0% | inhibition at 1 µM [19]: 0% | inhibition at 1 µM [20]: 37% | inhibition at 1 µM [21]: 20% | inhibition at 1 µM [22]: 0% | inhibition at 1 µM [23]: 0% | inhibition at 1 µM [24]: 0% | inhibition at 1 µM [25]: 0%

From PMC7180948, “New Insights into 4-Anilinoquinazolines as Inhibitors of Cardiac Troponin I–Interacting Kinase (TNNi3K)” (Molecules, 2020)
